One assay concerns Staphlococcus aureus. The experiment in a line: Staphlococcus aureus bacterial cultures (plate, clear areas). Conditions: 150 μL beads or 10 mg tobramycin disc on plate. It counts as cell-based. Here is the method: Staphlococcus aureus bacterial cultures were performed in the microbiology department of Hahnemann University Hospital. On each plate 150 μL of control beads, 150 μL, of antibiotic beads and a 10 mg tobramycin disc were placed in order to see any bactericidal activity.

Assay [1] has as its system bacterial strains cultured directly from clinically retrieved gentamicin-loaded bone cement. Conditions: cited from earlier work.

For `NC[C@H]1O[C@H](O[C@H]2[C@H](O)[C@@H](O[C@H]3O[C@H](CO)[C@@H](O)[C@H](N)[C@H]3O)[C@H](N)C[C@@H]2N)[C@H](N)C[C@@H]1O` [tobramycin disc, tobramycin], the “bactericidal activity (clear areas indicating lack of bacterial growth)” value in the assay with Staphlococcus aureus was “clear areas present”.
Turning to gentamicin, in assay [1], the gentamicin resistant strains was 19 of 28.
